{"source": "patent US20090171105A1", "about": "(priority 2006, published 2009)", "key": {"lung carcinoma": {"system": "lung carcinoma", "assay": "antitumor activity on experimental tumor strains", "assay_type": "in vivo", "conditions": "intraperitoneal and intratumoral introduction, MTD"}, "Ehrlich's solid tumor": {"system": "Ehrlich's solid tumor", "assay": "antitumor activity on experimental tumor strains", "assay_type": "in vivo", "conditions": "intraperitoneal and intratumoral introduction, MTD"}, "[1]": {"system": "mamma adenocarcinoma Ca-755", "assay": "antitumor activity on experimental tumor strains", "assay_type": "in vivo", "conditions": "intraperitoneal and intratumoral introduction, MTD"}, "sarcoma 37": {"system": "sarcoma 37", "assay": "antitumor activity on experimental tumor strains", "assay_type": "in vivo", "conditions": "intraperitoneal and intratumoral introduction, MTD"}, "[2]": {"system": "lymphocytic leukemia P-388", "assay": "antitumor activity on experimental tumor strains", "assay_type": "in vivo", "conditions": "intraperitoneal and intratumoral introduction, MTD"}, "lymphoid leukemia L-1210": {"system": "lymphoid leukemia L-1210", "assay": "antitumor activity on experimental tumor strains", "assay_type": "in vivo", "conditions": "intraperitoneal and intratumoral introduction, MTD"}, "sarcoma M-I": {"system": "sarcoma M-I", "assay": "antitumor activity on experimental tumor strains", "assay_type": "in vivo", "conditions": "intraperitoneal and intratumoral introduction, MTD"}, "Walker carcinosarcoma": {"system": "Walker carcinosarcoma", "assay": "antitumor activity on experimental tumor strains", "assay_type": "in vivo", "conditions": "intraperitoneal and intratumoral introduction, MTD"}, "[3]": {"system": "alveolar mucous cancer of liver PC-1", "assay": "antitumor activity on experimental tumor strains", "assay_type": "in vivo", "conditions": "alveolar mucous cancer of liver PC-1 of rats; intraperitoneal and intratumoral introduction, MTD"}, "[4]": {"system": "interweave tumors, resistant to prospidine, rubomicine and sarcolyzine", "assay": "efficiency on drug-resistant interweave tumors", "assay_type": "in vivo"}, "connective tissue": {"system": "connective tissue", "assay": "oxidation-reduction processes and metabolism in connective tissue"}, "[5]": {"system": "T-cellular part of immunity", "assay": "immunomodulating activity"}, "[6]": {"molecular_target": "(Homo sapiens, UniProt P49354+P49356)", "sequence (P49356 whole entry, one chain of several)": "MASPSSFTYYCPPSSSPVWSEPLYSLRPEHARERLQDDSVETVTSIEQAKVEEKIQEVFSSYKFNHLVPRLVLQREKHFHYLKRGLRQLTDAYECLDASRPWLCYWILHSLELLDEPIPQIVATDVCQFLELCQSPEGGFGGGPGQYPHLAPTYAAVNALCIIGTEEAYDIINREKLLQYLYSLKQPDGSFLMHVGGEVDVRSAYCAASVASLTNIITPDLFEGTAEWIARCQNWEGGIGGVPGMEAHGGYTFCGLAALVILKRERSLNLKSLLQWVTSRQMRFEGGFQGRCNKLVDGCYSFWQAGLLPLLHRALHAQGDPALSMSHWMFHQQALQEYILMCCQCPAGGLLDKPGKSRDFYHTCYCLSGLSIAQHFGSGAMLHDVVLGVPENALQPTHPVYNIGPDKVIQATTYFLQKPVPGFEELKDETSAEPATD", "assay": "inhibition of RAS-oncoprotein farnesylation", "assay_type": "biochemical"}, "RAS-genes": {"system": "RAS-genes", "assay": "expression of RAS-genes", "assay_type": "cell-based"}, "tumor cells": {"system": "tumor cells", "assay": "ATP content and apoptosis of tumor cells", "assay_type": "cell-based"}}}
{"substance": "1(10)β-epoxy-13-dimethylamino-5,7α,6,11β(H)-guaia-3(4)-en-6,12-olide hydrochloride [Arglabin]", "values": [{"measurement": "sensitivity of tumor strain", "setting": "lung carcinoma", "result": "sensitive"}, {"measurement": "sensitivity of tumor strain", "setting": "Ehrlich's solid tumor", "result": "sensitive"}, {"measurement": "sensitivity of tumor strain", "setting": "[1]", "result": "sensitive"}, {"measurement": "sensitivity of tumor strain", "setting": "sarcoma 37", "result": "sensitive"}, {"measurement": "sensitivity of tumor strain", "setting": "[2]", "result": "sensitive"}, {"measurement": "sensitivity of tumor strain", "setting": "lymphoid leukemia L-1210", "result": "sensitive"}, {"measurement": "sensitivity of tumor strain", "setting": "sarcoma M-I", "result": "sensitive"}, {"measurement": "sensitivity of tumor strain", "setting": "Walker carcinosarcoma", "result": "sensitive"}, {"measurement": "sensitivity of tumor strain", "setting": "[3]", "result": "sensitive"}, {"measurement": "efficiency in relation to resistant interweave tumors", "setting": "[4]", "result": "shows efficiency"}, {"measurement": "oxidation-reduction processes and metabolism in a connective tissue", "setting": "connective tissue", "result": "has ability to optimize oxidation-reduction processes and a metabolism in a connective tissue"}, {"measurement": "correction of immunodepressive effect of cytostatic", "setting": "[5]", "result": "has a property to correct immunodepressive effect of cytostatic cells"}, {"measurement": "immunomodulating activity", "setting": "[5]; depends on dose", "result": "shows primary influence on the T-cellular part of immunity"}, {"measurement": "inhibition of RAS-oncoproteins pharnesilis", "setting": "[6]", "result": "competitive inhibitor"}, {"measurement": "expression of RAS-genes", "setting": "RAS-genes", "result": "reduces"}, {"measurement": "ATP content", "setting": "tumor cells", "result": "reduces"}, {"measurement": "tumor cells apoptosis", "setting": "tumor cells", "result": "invokes tumor cells apoptosis"}]}
